Laboratory results taken from publication PMC7825173, “4’-O-Methylbroussochalcone B as a novel tubulin polymerization inhibitor suppressed the proliferation and migration of acute myeloid leukaemia cells” (BMC Cancer, 2021).
Each block holds one molecule with its values, some of them ahead of it.

Assays:
tubulin = assay: Tubulin polymerization assay in vitro; type: biochemical; conditions: 2 mg/mL tubulin, 60 min, 37 °C; read-out: IC50, inhibition of tubulin polymerization
Protocol: An amount of 2 mg/mL tubulin was resuspended in PEM buffer, consisted of 80 mM PIPES (pH 6.9), 2 mM MgCl2, 0.5 mM EGTA, and 15% glycerol. 4′-O-Methylbroussochalcone B (1 μM, 3 μM and 6 μM) was preincubated on ice. The reaction was monitored by a spectrophotometer in absorbance at 340 nm at 37 °C.
The tubulin assembly assay measured the extent of assembly of 2 mg/mL tubulin after 60 min at 37 °C. Data are presented as mean from three independent experiments.
The tubulin assembly assay measured the extent of assembly of 2 mg/mL tubulin after 60 minutes at 37 °C. Data are presented as mean from three independent experiments.

[1] = test system: colchicine binding site of β-tubulin; assay: EBI competition assay in ML-2 cells; type: cell-based, human; conditions: preincubation at 10 μM, Western Blot
Protocol: ML-2 cells were seeded in 6-well plates for 24 h. 4′-O-Methylbroussochalcone B and colchicine treated them for 2 h respectively. Then, EBI were added. After 90 min, ML-2 cells were harvested to do Western Blot analysis. The signals were then visualized using chemiluminescent substrate (Zhengzhou research company, Zhengzhou, China).

ML-2 cells [2] = assay: Apoptosis assay (Annexin V-FITC/PI flow cytometry), ML-2 cells; type: cell-based, human; conditions: 48 h
Protocol: (§1) ML-2 cells and OCI-AML5 cells were seeded in 6-well culture plates and treated with certain concentration of 4′-O-Methylbroussochalcone B for 48 h. Cells were harvested and suspended in binding buffer containing Annexin V-FITC (0.5 mg/mL) and PI (0.5 mg/mL) then. After that, samples were incubated for 25 min in dark and analyzed with flow cytometry (Becton, Dickinson and Company, NJ).

ML-2 cells [3] = assay: MTT antiproliferative assay, ML-2 cells; type: cell-based, human; conditions: 72 h
Protocol: (§2) Cells were grown in a 5% CO2 incubator at 37 °C. We used trypsin to digest cells in logarithmic growth phase. Then, we plated the cells in 96-well plates at 5000 cells per well evenly. After cell adherence, chalcones were added in the 96-well plates for 48 h or 72 h. We added MTT reagent to each well and incubated for 2 h in the incubator. Finally, the absorbance value was measured at 490 nm after treatment with DMSO.

GDM-1 cells = assay: MTT antiproliferative assay, GDM-1 cells; type: cell-based, human; conditions: 72 h; for cell proliferation rate: 16 μM
Protocol: as §2

ML-2 cells [4] = assay: Cell cycle assay, ML-2 cells; type: cell-based, human; conditions: 2 μM and 4 μM, 48 h
Protocol: (§3) The samples of fixed cells were stained with 50 μg/ml Propidium iodide (PI, Sigma) in the dark for 30 min at room temperature, following the manufacturer’s protocol. Then the samples were tested by flow cytometer (Becton, Dickinson and Company, NJ). Data were analyzed via CellQuest software.

β-tubulin = assay: Immunofluorescence staining of β-tubulin in ML-2 cells; type: cell-based, human; conditions: 1 μM and 2 μM, 24 h
Protocol: ML-2 cells were seeded into 6-well plates and then treated with 4′-O-Methylbroussochalcone B for 24 h. ML-2 cells were washed with phosphate buffer solution (PBS), and then fixed in 4% paraformaldehyde. After blocking for 0.5 h in 5% goat serum albumin, ML-2 cells were incubated with anti-β-tubulin for 2 h. Then, ML-2 cells were washed by PBS and labeled by 4, 6-diamidino-2-phenylindole.

OCI-AML5 cells [5] = assay: Cell cycle assay, OCI-AML5 cells; type: cell-based, human; conditions: 2 μM and 4 μM, 48 h
Protocol: as §3

OCI-AML5 cells [6] = assay: Apoptosis assay (Annexin V-FITC/PI flow cytometry), OCI-AML5 cells; type: cell-based, human; conditions: 48 h
Protocol: as §1

ML-2 cells [7] = assay: Transwell migration assay, ML-2 cells; type: cell-based, human; conditions: 24 h
Protocol: (§4) The cells (100 μl, 1 × 10^6 cells/ml) were suspended in the medium which contained 0.1% FBS and plated to the upper chamber of the transwell. The lower wells were incubated with the addition of the medium (600 μl per well), which included CCL25 (100 ng/ml; Cedarlane Laboratories, Burlington, Canada) and 0.1% FBS. The cells were hatched for 24 h at 37 °C with 5% CO2. Finally, the cells in the lower chamber were counted under a light microscope.

CESS cells = assay: MTT antiproliferative assay, CESS cells; type: cell-based, human; conditions: 72 h
Protocol: as §2

OCI-AML5 cells [8] = assay: MTT antiproliferative assay, OCI-AML5 cells; type: cell-based, human; conditions: 72 h
Protocol: as §2

OCI-AML5 cells [9] = assay: Transwell migration assay, OCI-AML5 cells; type: cell-based, human; conditions: 24 h
Protocol: as §4

Molecule: 4′-O-Methylbroussochalcone B
IC50 (tubulin): 2.86 µM
formation of EBI: β-tubulin adduct [1]: prevented the formation of EBI: β-tubulin adduct
percentage of apoptotic cells (early and late phase) (ML-2 cells [2]; 2 μM): 13.68%
percentage of apoptotic cells (early and late phase) (ML-2 cells [2]; 4 μM): 55.04%
IC50 (ML-2 cells [3]): 1.16 µM
cell proliferation rate (GDM-1 cells): 8.14%
IC50 (GDM-1 cells): 3.57 µM
cell cycle distribution (G2-M phase) (ML-2 cells [4]): arrested in the G2-M phase significantly
expression of β-tubulin (immunofluorescence) (β-tubulin): suppressed in a concentration-dependent manner
cell cycle distribution (G2-M phase) (OCI-AML5 cells [5]): arrested in the G2-M phase significantly
apoptotic rate (OCI-AML5 cells [6]; 2 μM): 12.84%
apoptotic rate (OCI-AML5 cells [6]; 4 μM): 24.13%
cell migration (ML-2 cells [7]): evidently inhibited
IC50 (CESS cells): 4.2 µM
IC50 (OCI-AML5 cells [8]): 2.03 µM
cell migration (OCI-AML5 cells [9]): evidently inhibited

Molecule: CC1(C)C=Cc2cc(C(=O)/C=C/c3ccc(O)cc3)c(O)cc2O1 [Bavachromene]
IC50 (tubulin): 3.11 ± 0.1 µM
cell proliferation rate (GDM-1 cells): 29.40%

Molecule: CC(C)=CCc1cc(C(=O)/C=C/c2ccc(O)cc2)c(O)cc1O [Broussochalcone B]
IC50 (tubulin): 5.13 ± 0.45 µM
cell proliferation rate (GDM-1 cells): 29.67%

The next lines start with results.

IC50 (tubulin): 4.39 ± 0.26 µM
Molecule: CC1(C)CCc2c(ccc(C(=O)/C=C/c3ccc(O)cc3)c2O)O1 [Dorsmanin A]
cell proliferation rate (GDM-1 cells): 36.67%

IC50 (tubulin): 6.38 ± 0.12 µM
Molecule: CC(C)=CCc1c(O)ccc(C(=O)/C=C/c2ccc(O)cc2)c1O [Isobavachalcone]
cell proliferation rate (GDM-1 cells): 57.33%

IC50 (tubulin): 8.24 ± 0.74 µM
Molecule: CC1(C)C=Cc2c(ccc(C(=O)/C=C/c3ccc(O)cc3)c2O)O1 [Isobavachromene]
cell proliferation rate (GDM-1 cells): 69.00%
